Measured values taken from patent US9622995B2, “Treatment of disorders associated with G protein-coupled receptor 35 (GPR35)” (TEMPLE UNIVERSITY—OF THE COMMONWEALTH SYSTEM OF HIGHER …, priority 2009, dated 2017).
Blank lines part the entries; values can stand above or below the compound they belong to.

Tests used:
[1] = target: T1, CB1 cannabinoid receptors (Homo sapiens, UniProt P21554); experiment: βarr2-GFP redistribution in U2OS cells co-expressing CB1 (specificity control); type: cell-based; conditions: U2OS cells co-expressing β-arr2-GFP and CB1, 1 μM; data not shown
T1 construct: expressed in transfected cells; host or cells: U2OS cells

[2] = Acetic acid writhing (abdominal constriction) test in mice; conditions: for mean number of writhes: male Swiss Webster mice, 0.6% acetic acid i.p., saline control 21±1
GPR55 receptors = target: T2, GPR55 receptors (Homo sapiens, UniProt Q9Y2T6); experiment: βarr2-GFP redistribution in U2OS cells co-expressing GPR55 (specificity control); type: cell-based; conditions: U2OS cells co-expressing βarr2-GFP and GPR55, 1 μM; data not shown
T2 construct: expressed in transfected cells; host or cells: U2OS cells

[3] = target: T3, vasopressin receptor (V2R) (Homo sapiens, UniProt P30518); experiment: β-arrestin2-GFP redistribution in U2OS cells overexpressing V2R (specificity control); type: cell-based; conditions: U2OS cells with β-arrestin2-GFP and overexpressed V2R, 1 μM
T3 construct: expressed in transfected cells; host or cells: U2OS cells
Protocol: (§1) U20S cells expressing HA-GPR35a/βarr2-GFP (also known as UGPR35β cells) were plated in a 24-well plate onto coverslips that were coated with poly-D-lysine (0.02 mg/ml; Sigma-Aldrich, St. Louis, Mo., USA) for 1 hour. Cells were maintained at 37° C., 5% CO2 until ready for experiment (90% confluent). Cells were washed once with Hanks' balanced salt solution (HBSS, Cellgro, Mediatech, Inc, Manassas, Va., USA) comprising CaCl2 0.14 g/L, KCl 0.4 g/L, KH2PO4 0.06 g/L, MgSO4 0.097 g/L, NaCl 8 g/L, Na2HPO4 0.047 g/L, NaHCO3 0.35 g/L, and D-glucose 1.0 g/L. For receptor activation, agonist-evoked redistribution of βarr2-GFP was measured by applying the drug for 40 minutes. For measuring the effects of antagonist, agonist and antagonist were co-applied.
(§2) Cells were then fixed with 4% paraformaldehyde for 20 minutes at room temperature, followed by three washes with HBSS.
In that panel, fluorescence was observed close to the cell membrane. As a control for drug specificity, 1 μM pamoic acid was added to a U2OS cell line containing β-arrestin2-GFP and overexpressed vasopressin receptor (V2R).

[4] = Middle cerebral artery occlusion with reperfusion (MCAO/R) stroke model; type: in vivo; conditions: male mice
Protocol: Several animal-based models for stroke have been proposed and validated, such as the artery occlusion and reperfusion model in male mice described by Zhang and coworkers (Microvasc. Res., 2009, 78(1):86-94). In this model, the animals are submitted to middle cerebral artery occlusion for a period of 60 minutes and then reperfusion is allowed. Cerebral infarction volume is measured by analyzing sections of the animal brain stained with triphenyltetrazolium chloride. Triphenyltetrazolium chloride is believed to be reduced to red formazan by mitochondrial enzymes, specifically succinate dehydrogenase (Lippold, 1982, Histochemistry 76:381-405). […] Therefore, TTC staining is extensively used in animal stroke experiments for quantitatively delineating the infarct volume (Memezawa et al., 1992, Exp. Brain Res. 89:67-78.; Hasegawa et al., 1995, J. Cereb. Blood Flow Metab. 15:179-187; Kuge et al., 1995, Stroke 26:1655-1658; Fuhai et al., 1997, J. Cereb. Blood Flow Metab. 17:1132-1135). […]
Cerebral infarction volume was measured 24 hours after MCAO/R. The animals were euthanized with an overdose of pentobarbital (200 mg/kg i.p.) 24 hours after MCAO and the brains were removed, and chilled on ice for 10 min to slightly harden the tissue. […]

mouse GPR35 = target: T4, mouse GPR35 (Mus musculus, UniProt Q9ES90); conditions: CHO cells co-transfected with mouse GPR35, Aequorin readout; Wang et al. 2006; read-out: EC50 for receptor activation; cited from earlier work
T4 construct: host or cells: CHO cells

GPR35a = GPR35a (Homo sapiens, UniProt Q9HC97, S294R); experiment: β-arrestin2-GFP redistribution/aggregation in UGPR35β cells; type: cell-based; parameters: expressed in transfected cells; conditions: mean (95% confidence interval in brackets in the text), read-out: EC50 for β-arrestin2 aggregation
From the text: This cellular assay utilizes the intracellular β-arrestin protein as a reporter of receptor activity. […] Upon agonist-mediated GPCR activation, β-arrestins rapidly redistribute en masse to ligand-activated plasma membrane receptors (on the other hand, β-arrestins remain in the cytosol upon antagonist binding to the receptor). Activated GPCR/β-arrestin complexes will concentrate in clathrin-coated pits and/or internal vesicles where most GPCRs normally undergo internalization. At this juncture, the β-arrestin either (i) dissociates and returns to the cytoplasm, or (ii) further redistributes with the receptor into an intracellular endosomal vesicle, depending on the receptor type. It is the agonist-induced redistribution of β-arrestin-GFP into progressively smaller compartments (cytosolic compartment>plasma membrane>coated pit>endosomal compartment) that enables imaging of receptor activation.
This cell line is herein referred to as UGPR35β. Selected cells were maintained at 200 μg/ml G418® and 100 μg/ml Zeocin® at 37° C. and 5% CO2.
as §1, §2
βarr2-GFP aggregates were identified by a wavelet-based, Microsoft Windows-compatible computer program written in the MatLab programming environment. A program algorithm extracts from two dimensional images those pixels that generate objects of interest that fall within a predetermined range of sizes and intensities and that are embedded among widely varying local backgrounds (L. Barak, available from the Duke University GPCR Assay Bank). Concentration-effect curves for agonist-mediated receptor activation were analyzed by non-linear regression techniques using GraphPad Prism 4.0 software (GraphPad) and data were fitted to sigmoidal dose-response curves to obtain EC50 or IC50 values. Statistical analysis was performed using one-way analysis of variance (ANOVA) followed by Dunnett's post-test or two-tailed unpaired student t test. P values of <0.05 are considered significant.
A prototypical U2OS osteosarcoma cell line that permanently expresses β-arrestin-GFP and N-terminal triple HA-tagged human GPR35a was used to screen ligands for agonism or antagonism against the GPR35 receptor. […] Endogenous receptors are invisible to the assay because there are too few endogenous receptors of any type compared to the number of β-arrestin molecules in the cell to provide a measurable response.
Upon agonist-mediated GPCR activation, β-arrestins rapidly redistribute en masse to ligand-activated plasma membrane receptors, and then the activated GPCR/arrestin complexes concentrate in clathrincoated pits and/or internal vesicles.
Concentration response curves for β-arrestin2 aggregation were obtained for compounds of interest. For this study, UGPR35β cells were treated with different concentrations of a compound of interest and images of the cells (acquired in triplicate in three or more independent experiments) were analyzed for fluorescence.

rat GPR35 = target: T5, rat GPR35 (Rattus norvegicus, UniProt Q33BM1); conditions: CHO cells co-transfected with rat GPR35, Aequorin readout; Wang et al. 2006; read-out: EC50 for receptor activation; cited from earlier work
T5 construct: host or cells: CHO cells

human GPR35 = target: T6, human GPR35 (Homo sapiens, UniProt Q9HC97); conditions: CHO cells co-transfected with human GPR35, Aequorin readout; Wang et al. 2006; read-out: EC50 for receptor activation; cited from earlier work
T6 construct: host or cells: CHO cells

GPR35 = GPR35 (Homo sapiens, UniProt Q9HC97, S294R); experiment: cell-based
GPR35, sequence (Q9HC97 whole entry S294R): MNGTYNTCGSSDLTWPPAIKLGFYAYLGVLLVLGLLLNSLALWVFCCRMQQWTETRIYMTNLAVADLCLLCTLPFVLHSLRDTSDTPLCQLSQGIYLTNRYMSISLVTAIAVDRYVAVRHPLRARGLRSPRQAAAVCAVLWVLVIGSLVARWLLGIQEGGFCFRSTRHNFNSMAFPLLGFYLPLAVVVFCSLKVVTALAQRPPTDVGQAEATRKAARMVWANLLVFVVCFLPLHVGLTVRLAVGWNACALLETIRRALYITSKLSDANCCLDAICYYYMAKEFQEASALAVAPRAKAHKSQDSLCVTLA
Protocol: Loss of cell surface receptor may be evaluated by methods such as On-Cell Western analysis of the cells under treatment.
In a non-limiting example, a cell line that expresses N-terminal triple HA-tagged GPR35 receptor is used. After contacting the cells with a candidate GPR35 agonist and incubating the system for a set period of time, the cells are incubated with an anti-HA mouse antibody, followed by incubation with a fluorophore-labeled anti-mouse antibody. The resulting observed fluorescence is then used to assess the level of GPR35 receptor on the cell surface.
The previously described U2OS cells expressing HA-GPR35a/βarr2-GFP (also known as UGPR35β cells) were seeded and grown until confluence on the bottoms of a 96-well plate. […] Cells were washed once with Hanks' balanced salt solution (HBSS, Cellgro, Mediatech, Inc, Manassas, Va., USA) prior to appropriate drug treatment and then fixed with 4% formaldehyde for 20 minutes at room temperature. This step was followed by three washes with PBS for 5 minutes each.
The secondary antibody (IRDye 800 conjugated anti-mouse IgG, Rockland, Gilbertsville, Pa.; 1:1000 in LI-COR Odyssey® blocking buffer) was then added to the treated cells and incubated for 1 hour at room temperature protected from light.
Cells grown on coverslips were incubated over ice for 40 minutes with a 1:500 dilution of mouse monoclonal anti-HA antibody in blocking buffer (3% BSA in PBS), followed by three consecutive washes with PBS. […] Antibody-labeled cells were treated with agonist alone or in combination with antagonist for 40 minutes at 37° C., and the cells were then imaged.
On-Cell western analysis was performed using a LI-COR odyssey infra-red imager to quantify ligand potency to induce loss of cell surface receptor.
For each concentration of the compound of interest, the intensity of labeling was measured using immunofluorescence. The readings were plotted against the compound concentrations, yielding binding curves that allowed the calculation of EC50 values (FIGS. 6C-E).

T2 sequence (Q9Y2T6 whole entry): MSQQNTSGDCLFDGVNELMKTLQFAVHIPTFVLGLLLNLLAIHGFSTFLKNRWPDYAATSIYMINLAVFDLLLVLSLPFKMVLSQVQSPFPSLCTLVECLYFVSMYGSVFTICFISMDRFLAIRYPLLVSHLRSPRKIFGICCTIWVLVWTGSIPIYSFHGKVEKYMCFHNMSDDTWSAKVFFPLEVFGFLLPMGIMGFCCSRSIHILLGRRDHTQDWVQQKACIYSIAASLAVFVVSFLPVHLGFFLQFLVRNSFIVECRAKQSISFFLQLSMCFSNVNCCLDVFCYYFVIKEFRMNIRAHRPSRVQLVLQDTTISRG
T1 sequence (P21554 whole entry): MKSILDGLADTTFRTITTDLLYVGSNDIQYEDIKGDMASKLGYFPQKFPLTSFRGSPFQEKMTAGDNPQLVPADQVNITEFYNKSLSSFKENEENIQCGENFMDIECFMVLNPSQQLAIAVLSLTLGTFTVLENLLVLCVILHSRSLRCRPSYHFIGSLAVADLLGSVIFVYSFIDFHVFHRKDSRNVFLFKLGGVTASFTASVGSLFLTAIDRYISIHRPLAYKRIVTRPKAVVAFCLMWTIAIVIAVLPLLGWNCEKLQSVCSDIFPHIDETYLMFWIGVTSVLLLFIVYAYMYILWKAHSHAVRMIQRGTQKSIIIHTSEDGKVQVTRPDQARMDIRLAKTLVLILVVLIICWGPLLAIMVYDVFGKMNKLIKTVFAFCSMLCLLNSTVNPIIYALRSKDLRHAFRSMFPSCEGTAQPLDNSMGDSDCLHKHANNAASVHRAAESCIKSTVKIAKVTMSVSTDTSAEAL
GPR35a, sequence (Q9HC97 whole entry S294R): as the sequence (Q9HC97 whole entry S294R) above
T6 sequence (Q9HC97 whole entry): as the sequence (Q9HC97 whole entry S294R) above, with R294S counted along it
T4 sequence (Q9ES90 whole entry): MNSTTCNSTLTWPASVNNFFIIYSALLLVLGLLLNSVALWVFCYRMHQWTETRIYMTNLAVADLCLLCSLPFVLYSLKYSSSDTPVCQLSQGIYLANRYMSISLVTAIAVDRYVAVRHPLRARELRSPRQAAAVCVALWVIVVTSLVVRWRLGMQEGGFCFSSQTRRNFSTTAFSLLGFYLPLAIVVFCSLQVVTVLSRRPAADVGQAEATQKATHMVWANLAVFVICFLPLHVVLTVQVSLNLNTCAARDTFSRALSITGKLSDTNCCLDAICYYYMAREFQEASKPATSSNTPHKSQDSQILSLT
T5 sequence (Q33BM1 1-306): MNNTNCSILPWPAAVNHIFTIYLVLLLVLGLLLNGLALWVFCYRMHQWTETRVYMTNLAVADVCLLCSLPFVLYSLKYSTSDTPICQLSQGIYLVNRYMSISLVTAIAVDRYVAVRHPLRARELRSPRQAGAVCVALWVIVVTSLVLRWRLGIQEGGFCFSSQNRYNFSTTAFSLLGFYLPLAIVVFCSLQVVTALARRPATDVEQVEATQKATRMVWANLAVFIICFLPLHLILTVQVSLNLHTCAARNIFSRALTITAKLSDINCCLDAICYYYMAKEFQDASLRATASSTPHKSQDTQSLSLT
T3 sequence (P30518 whole entry, species assumed): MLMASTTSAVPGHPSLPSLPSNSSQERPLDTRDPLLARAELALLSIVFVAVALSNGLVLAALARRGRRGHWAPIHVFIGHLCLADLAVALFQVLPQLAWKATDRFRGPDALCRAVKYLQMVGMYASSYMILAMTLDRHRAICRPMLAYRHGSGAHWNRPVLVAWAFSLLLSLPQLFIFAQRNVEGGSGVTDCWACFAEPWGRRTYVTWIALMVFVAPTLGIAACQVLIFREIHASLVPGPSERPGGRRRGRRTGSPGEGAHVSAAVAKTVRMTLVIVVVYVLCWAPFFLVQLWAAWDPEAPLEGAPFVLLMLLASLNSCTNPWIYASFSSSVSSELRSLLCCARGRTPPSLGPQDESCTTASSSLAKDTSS

SMILES: O=C(O)c1cc2ccccc2c(Cc2c(O)c(C(=O)O)cc3ccccc23)c1O [Compound 1, 4-[(3-carboxy-2-hydroxynaphthalen-1-yl)methyl]-3-hydroxynaphthalene-2-carboxylic acid]
βarr2-GFP response [1]: no response was observed | antinociceptive effect, in words ([2]; mice, s.c., dose of 100 mg/kg): essentially complete antinociception | subcutaneous dose causing 50% antinociception ([2]; mice, s.c., given as disodium pamoate, 95% CL 28.3-90.3 mg/kg): 40.5 mg/kg | βarr2-GFP response (GPR55 receptors): no response was observed | change in β-arrestin2-GFP fluorescence distribution [3]: no change in fluorescence distribution was observed

SMILES: O=C(O)c1cc2ccccc2c(Cc2c(O)c(C(=O)O)cc3ccccc23)c1O [disodium pamoate]
mean number of writhes ([2]; 25 mg/kg s.c.): 14±2 | mean number of writhes ([2]; 50 mg/kg s.c.): 11±2 | mean number of writhes ([2]; 100 mg/kg s.c.): 0.4±0.2 | infarction percentage ([4]; given one hour prior to reperfusion, measured 24 hours after MCAO/R, control about 27%): about 17% | reduction in infarction percentage ([4]; versus untreated control): about 37%

EC50 (GPR35a): 217 µM
SMILES: O=C(O)c1cc(=O)c2ccccc2[nH]1 [kynurenic acid, 2-carboxy-4-hydroxy-quinoline]
EC50 (mouse GPR35): 11 µM | EC50 (rat GPR35): 7 µM | EC50 (human GPR35): 40 µM

EC50 (GPR35): 0.0887 µM
SMILES: CN1CCCN=C1/C=C/c1cccs1 [pyrantel pamoate]
